# In patent US20190083420A1, “METHODS OF USING (2R, 6R)-HYDROXYN[…] (2S, 6S)-HYDROXYN[…] THE TREATMENT OF DEPRESSION, ANXIETY, ANHEDONIA, FATIGUE, SUICIDAL IDEATION, AND POST TRAUMATIC STRESS DISORDERS” (The Uinited States of America, as represented by the …, priority 2016, published 2019):
# Tests used:
# [1] = system: mice; assay: Accelerating rotarod (motor coordination); type: in vivo; conditions: 5-60 min post-injection, i.p.
# Method: The rotarod test was conducted to compare the effects of ketamine, (2S,6S)-HNK and (2R,6R)-HNK on motor coordination. The experiment consisted of two phases: training phase (4 days) and a test phase (1 day). On each of the training days five trials (trial time: 3 min) were conducted with an inter-trial interval of two min Mice were individually placed on the rotarod apparatus (HTC Life Science; Woodland Hills, Calif., USA) and the rotor (3.75 inch diameter) accelerated from 5-20 RPM over a period of three minutes. Latency to fall was recorded for each trial. Animals with an average of <100 sec of latency to fall during the last training day were excluded from the experiment. On the test day (day 5), mice received (i.p.) injections of saline, (R,S)-KET (10 mg/kg), (2S,6S)-HNK (25 or 125 mg/kg) or (2R,6R)-HNK (2.5 or 125 mg/kg) and were tested in the rotating rod 5-. 10-, 15-, 20-, 30- and 60-min post-injection using the same procedure described for the training days.
# [2] = system: mice; assay: Open field test (locomotor activity); type: in vivo; conditions: 1 hour after i.p. drug
# Method: Mice were placed into individual open-field arenas (50 cm length×50 cm width×38 cm height; San Diego Instruments, San Diego, Calif., USA) for a 60-min habituation period. Mice were then injected with the respective drug and assessed for locomotor activity for another 60 min. Distance travelled was analyzed using TopScan v2.0 (CleverSys, Inc, Reston, Va., USA).
# [3] = Tissue distribution of ketamine and metabolites (plasma and brain levels)
# Method: Mice were euthanized by a 30-sec exposure to 3% isoflurane and decapitated at 10, 30, 60, 240 or 480 minutes following drug administration. Trunk blood was collected in EDTA-containing tubes and centrifuged at 8000 rpm for 6 min (4° C.). Plasma was collected and stored at −80° C. until analysis. Whole brains were simultaneously collected, rinsed with phosphate-buffered saline, immediately frozen in dry ice and stored at −80° C. until analysis.
# The concentrations of ketamine and its metabolites in plasma and brain tissue were determined by achiral liquid chromatography-tandem mass spectrometry. For plasma samples, the calibration standards for (R,S)-ketamine, (R,S)-norketamine, (2R,6R;2S,6S)-HNK and (R,S)-DHNK ranged from 10,000 ng/ml to 19 ng/ml. The quantification of (R,S)-ketamine, (R,S)-norketamine, (R,S)-DHNK, and the HNK stereoisomers was accomplished by calculating area ratios using D4-ketamine (10 μl of 10 μg/ml solution) as the internal standard. Whole brains were suspended in 990 μl of water:methanol (3:2, v/v), D4-ketamine (10 μl of 10 μg/ml) added and the resulting mixture homogenized on ice with a polytron homogenizer and centrifuged at 21,000×g for 30 min. The supernatant was collected and processed using 1 ml Oasis HLB solid phase extraction cartridges (Waters Corp., Waltham, Mass.). The cartridges were preconditioned with 1 ml of methanol, followed by 1 ml of water and then 1 ml ammonium acetate [10 mM, pH 9.5]. The supernatants were added to the cartridges, followed by 1 ml of water and the compounds were eluted with 1 ml of methanol. The eluent was transferred to an autosampler vial for analysis. QC standards for the analysis of (R,S)-ketamine, (R,S)-norketamine, (R,S)-DHNK and (2R,6R;2S,6S)-HNK ranged from 10,000 ng/ml to 19 ng/ml, and quantification was accomplished using D4-(R,S)-ketamine as the internal standard. QC standards were prepared daily by adding 10 μl of the appropriate standard solution and 10 μl of internal standard solution (100 ng/ml) to methanol.
# [4] = system: male CD-1 mice; assay: Learned helplessness (LH); type: in vivo; conditions: single injection; for antidepressant-like effect in learned helplessness (escape failures): test 24 hours after administration
# Text: (§1) Male CD-1 mice (8-10 weeks old, Charles River Laboratories, Mass., USA) were housed in groups of four-five per cage with a constant 12-hour light/dark cycle (lights on/off at 07:00/19:00). Food and water were available ad libitum. Mice acclimatized to the new environment for seven days prior to the start of the experiments. For the whole-cell NMDA current electrophysiological recordings, male Sprague-Dawley rats (housed three per cage; Charles River, Wilmington, Mass.) were used. EPSC recording were done from rats at postnatal day 24-25. All experimental procedures were approved by the University of Maryland, Baltimore Animal Care and Use Committee and were conducted in full accordance with the National Institutes of Health Guide for the Care and Use of Laboratory Animals.
# The LH paradigm consisted of three different phases, i.e., inescapable shock training, LH screening, and the LH test. For the inescapable shock portion of the test (Day 1), the animals were placed in one side of two-chambered shuttle boxes (34 cm height×37 cm width×18 cm depth; Coulbourn Instruments, PA, USA), with the door between the chambers closed. Following a five-min adaptation period, 120 inescapable foot-shocks (0.45 mA, 15 sec duration, randomized average inter-shock interval of 45 sec) were delivered through the grid floor. During the screening session (Day 2), the mice were placed in one of the two chambers of the apparatus for 5 min. A shock (0.45 mA) was then delivered, and the door between the two chambers was raised simultaneously. Crossing over into the second chamber terminated the shock. […] A total of 30 screening trials of escapable shocks were presented to each mouse with an average of 30 sec delay between each trial. Mice that developed helplessness behavior (>5 escape failures during the last 10 screening shocks) were administered with the respective drug 24 hours following screening (Day 3). During the LH test phase (Day 4), the animals were placed in the shuttle boxes and, after a 5-min adaptation period, a 0.45 mA shock was delivered concomitantly with door opening for the first five trials, followed by a 2-sec delay for the next 40 trials. Crossing over to the second chamber terminated the shock. […] A total of 45 trials of escapable shock were presented to each mouse with 30 sec inter-trial intervals. The number of escape failures was recorded for each mouse.
# [5] = plasma of humans; cited from earlier work
# [6] = system: male CD-1 mice; assay: Forced-swim test (FST); type: in vivo; conditions: 1- and 24-hours post-injection, times not separated, i.p.
# Text: as §1
# Mice were tested in the FST 1 hour and/or 24 hours post-injection. During the FST, mice were subjected to a 6-min swim session in clear Plexiglass cylinders (30 cm height×20 cm diameter) filled with 15 cm of water (23±1° C.). The FST was performed in normal light conditions (800 Lux). Sessions were recorded using a digital video-camera. Immobility time, defined as passive floating with no additional activity other than that necessary to keep the animal's head above water, was scored for the last 4 min of the 6-min test by a trained observer blind to the treatment.
# All drugs were dissolved in 0.9% saline, and administered intraperitoneally (i.p.) in a volume of 7.5 ml/kg of body mass. Corticosterone (4-pregnen-11β, 21-diol-3, 20-dione 21-hemisuccinate; Steraloids, Newport, R.I., USA) was dissolved in tap water. For the electrophysiology recordings, test drugs were diluted in artificial cerebrospinal fluid (AC SF).
# [7] = system: male CD-1 mice; assay: Novelty-suppressed feeding (NSF); type: in vivo; conditions: i.p.
# Text: as §1
# Mice were singly housed and food-deprived for twenty-four hours in freshly-made home-cages. Two normal chow diet pellets were placed on a square food platform (10×10 cm) in the center of an open-field arena (40×40 cm). […] The time needed for the mice to take a bite of food was recorded over a 10 min period by a trained observer blind to the treatment groups. After the test, the mice were returned to their home cage containing pre-weighed food pellets, and latency to bite the food as well as consumption was recorded for a period of 10 min.
# [8] = system: NMDA receptor; conditions: (S)-ketamine versus (R)-ketamine; cited from earlier work
structure (smiles),measurement,setting,value
"N[C@]1(c2ccccc2Cl)CCC[C@H](O)C1=O [(2S,6S)-HNK, (2S,6S)-2-amino-2-(2-chlorophenyl)-6-hydroxycyclohexanone]",motor coordination in the rotarod,[1],motor incoordination
same,motor coordination in the rotarod,"[1]; listed as (2S,6R)-HNK",induced motor incoordination
same,locomotor activity in the open-field test,[2],increased locomotor activity
same,locomotor activity in the open-field test,"[2]; listed as (2S,6S)-hydroxynorketamine",dose-dependently changed locomotor activity
same,"brain hydroxynorketamine levels after administration of (2S,6S)-HNK versus (2R,6R)-HNK",[3]; brain,"higher brain hydroxynorketamine levels compared to (2R,6R)-HNK"
same,doses with antidepressant-like effects in learned helplessness,[4],75 mg/kg
same,antidepressant-like effect in learned helplessness (escape failures),[4],induced antidepressant-like effects
"N[C@@]1(c2ccccc2Cl)CCC[C@@H](O)C1=O [(2S,6S;2R,6R)-HNK, (2S,6S;2R,6R)-hydroxynorketamine]","brain levels following ketamine administration, female mice compared to males",[3]; brain,three fold higher
same,metabolite found in plasma and brain following ketamine administration,"[3]; mice, (R,S)-KET 10 mg/kg i.p.",major HNK metabolite
same,metabolite found in plasma following ketamine administration,[5],major HNK metabolite
"CN[C@@]1(c2ccccc2Cl)CCCCC1=O [(R)-ketamine, reference compound]",brain levels of (R)-ketamine compared to (S)-ketamine,"[3]; brain, after (S)- and (R)-KET",does not result from higher brain levels
same,antidepressant effect in the FST (immobility time),[6],greater potency
same,antidepressant-like effect in learned helplessness (escape failures),[4],greater potency
same,antidepressant-like effect in novelty-suppressed feeding (latency to feed),[7],greater potency
CN[C@]1(c2ccccc2Cl)CCCCC1=O [(S)-ketamine],potency as inhibitor of the NMDA receptor relative to (R)-ketamine,[8],~4 fold
